This test addresses human Keap1 Kelch domain (Homo sapiens, UniProt Q14145). Nature of the test: FP binding assay: titration of fluorescently labeled Nrf2 peptide probes with Keap1 Kelch domain. The following applies: difference in the free and the bound anisotropy of the FITC-labeled peptide.

Sequence of human Keap1 Kelch domain (Q14145 with tags, fused parts or gaps): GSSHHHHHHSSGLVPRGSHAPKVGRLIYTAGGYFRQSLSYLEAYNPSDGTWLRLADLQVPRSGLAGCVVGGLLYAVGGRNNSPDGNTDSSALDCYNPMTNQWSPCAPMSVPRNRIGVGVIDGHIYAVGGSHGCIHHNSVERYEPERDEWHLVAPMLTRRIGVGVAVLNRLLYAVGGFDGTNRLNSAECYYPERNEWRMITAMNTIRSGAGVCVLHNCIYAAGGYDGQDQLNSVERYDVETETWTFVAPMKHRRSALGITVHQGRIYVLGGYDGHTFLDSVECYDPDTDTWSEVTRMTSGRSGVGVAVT

Regarding `CC(C)C[C@H](NC(=O)[C@H](Cc1ccccc1)NC(=O)[C@H](CCC(=O)O)NC(=O)CNC(=O)[C@@H](NC(=O)[C@H](CCC(=O)O)NC(=O)[C@H](CCC(=O)O)NC(=O)[C@H](CC(=O)O)NC(=O)[C@H](CC(C)C)NC(=O)[C@H](CCC(N)=O)NC(=O)[C@H](CC(C)C)NC(=O)[C@H](CCC(N)=O)NC(=O)[C@H](C)NC(=O)[C@H](Cc1ccccc1)NC(=S)Nc1ccc2c(c1)C(=O)OC21c2ccc(O)cc2Oc2cc(O)ccc21)[C@@H](C)O)C(=O)O` [FITC-14mer Nrf2], the “Dynamic Range (ΔmA)” value amounted to 64.2 mA.

For the origin of these results see patent publication US9075070B2, “HTS fluorescence polarization assay for inhibitors of Keap1-Nrf2 interaction” (RUTGERS, THE STATE UNIVERSITY OF NEW JERSEY, priority 2011, dated 2015).
